Measurements published in patent EP2955179A1, “CONDENSED HETEROCYCLIC COMPOUND” (Sumitomo Chemical Company Limited, priority 2013, dated 2014).

What was measured:
Assay type in all cases: in vivo
[1] = system: Aphis gossypii; experiment: Test Example 1: foliar spray on cucumber seedling inoculated with Aphis gossypii; conditions: 144 h, active ingredient 500 ppm, 20 ml sprayed on cucumber seedling, six days after spraying, read-out: control value
Procedure: On the other hand, on a cucumber seedling (the first true leaf stage) planted in a plastic cup was inoculated with about 30 Aphis gossypii (whole stage), and left for a day. 20 ml of the test drug solution was sprayed on the seedling. Six days after spraying, the number of surviving Aphis gossypii parasitic on the leaves of the cucumber was examined, and the control value was calculated according to the following equation: Control value (%) = {1-(Cb×Tai)/(Cai×Tb)} × 100 [formula] wherein the symbols represent as follows: • Cb: the number of insects in a non-treated section before treatment • Cai: the number of surviving parasitic insects in a non-treated section on observation • Tb: the number of insects in a treated section before treatment • Tai: the number of surviving parasitic insects in a treated section on observation • wherein the non-treated section refers to a section where the test drug solution prepared by diluting the formulation obtained as in Formulation Example 5 but not containing the compound of the present invention with the same amount of water as in the treated section was sprayed.

[2] = system: Aphis gossypii; experiment: Test Example 2: drench at foot of cucumber seedling, later inoculated with Aphis gossypii; conditions: soil, 144 h, active ingredient 500 ppm, 5 ml drench at foot of cucumber seedling, 7 days at 25°C, then inoculated and kept 6 days, read-out: control value
Procedure: On the other hand, a cucumber seedling (the second true leaf stage) planted in a plastic cup was drenched at its foot with 5 ml of the test drug solution, and kept in a greenhouse at 25°C for 7 days. On the cucumber leaf surface was inoculated about 30 Aphis gossypii (whole stage), and further kept in the greenhouse for 6 days, then the number of surviving Aphis gossypii parasitic on the leaves of the cucumber was examined, and the control value was calculated according to the following equation: Control value (%) = {1-(Cb×Tai)/(Cai×Tb)} × 100 [formula] wherein the symbols represent as follows: • Cb: the number of insects in a non-treated section before treatment • Cai: the number of surviving parasitic insects in a non-treated section on observation • Tb: the number of insects in a treated section before treatment • Tai: the number of surviving parasitic insects in a treated section on observation • wherein the non-treated section refers to a section where the test drug solution prepared by diluting the formulation obtained as in Formulation Example 5 but not containing the compound of the present invention with the same amount of water as in the treated section was sprayed.

[3] = system: Nilaparvata lugens; experiment: Test Example 4: drench at foot of rice seedling, Nilaparvata lugens larvae released; conditions: Nilaparvata lugens, soil, 144 h; active ingredient 500 ppm, 5 ml drench at foot of rice seedling, 7 days at 25°C, then third-fourth instar larvae kept 6 days; read-out: control value
[4] = system: Blattella germanica; experiment: whole plant or invertebrate; conditions: 144 h, read-out: death rate
Procedure: The formulations of Compounds of Present Invention 1-11, 1-19 and 1-23 as obtained in Formulation Example 5 were diluted with water, so as to have a concentration of the active ingredient of 500 ppm, to prepare a test drug solution.
A filter paper having a diameter of 5.5 cm was spread on the bottom of a polyethylene cup having the same diameter and 0.7 ml of the test drug solution was added dropwise onto the filter paper, and 30 mg of sucrose was uniformly placed as bait. Into the polyethylene cup, 2 male imagoes of Blattella germanica were released, and the cup was sealed with a lid. After 6 days, the life and death of Blattella germanica was examined, the number of dead insects was counted, and the death rate was calculated according to the following equation. Death rate (%) = (Number of dead insects/Number of tested insects) × 100 [formula]

[5] = system: Culex pipiens pallens; experiment: Test Example 10: Culex pipiens pallens larvae in treated water; conditions: 24 h, active ingredient concentration 3.5 ppm in ion-exchanged water, last-instar larvae, one day later, read-out: death rate
Excerpt: 20 last-instar larvae of Culex pipiens pallens were released into the solution. One day later, the life and death of the Culex pipiens pallens was examined, and the number of dead insects was counted to calculate the death rate. Death rate (%) = (Number of dead insects/Number of tested insects) × 100 [formula]

[6] = system: Plutella xylostella; experiment: Test Example 6: spray on cabbage, Plutella xylostella larvae released; conditions: 120 h, active ingredient 500 ppm, 20 mL/cup sprayed on cabbage, second instar larvae, 25°C for 5 days, read-out: death rate
Procedure: On the other hand, on cabbage at the third leaf stage planted in a polyethylene cup was sprayed, at a rate 20 mL/cup, the test drug solution. After the drug solution was dried, the foliage part was cut off, and then placed in a 50 mL volume cup. Five second instar larvae of Plutella xylostella were released into the cup, and the cup was sealed with a lid. After the cup was kept at 25°C for 5 days, the number of dead insects was counted. The death rate was calculated according to the following equation. Death rate (%) = (Number of dead insects/Number of tested insects) × 100 [formula]

Work on CCS(=O)(=O)c1cc(C(=O)NC)cnc1-c1nc2cc(C(F)(F)F)cnc2n1C [Compound of Present Invention 1-19] yielded a mortality at 500 ppm [1] of at least 90%, a mortality at 500 ppm [2] of at least 90% and a mortality at 500 ppm [3] of at least 90%. For the same compound, the mortality at 500 ppm [4] was 100% and the mortality at 3.5 ppm [5] was at least 95%.

CCN(CC)C(=O)c1cnc(-c2nc3cc(C(F)(F)F)cnc3n2C)c(S(=O)(=O)CC)c1 [Compound of Present Invention 1-11, N,N-diethyl-5-ethylsulfonyl-6-(3-methyl-6-trifluoromethyl-3 H-imidazo[4,5-b]pyridin-2-yl)nicotinamide] gave a mortality at 500 ppm [3] of at least 90%, a mortality at 500 ppm [6] of at least 80% and a mortality at 500 ppm [4] of 100%. It also gave a mortality at 3.5 ppm [5] of at least 95%.
